Data on one molecule can be found in BindingDB's records for doi:10.1021/jm070851i (Wyeth Research, 2007).

For the assay, the target named is T1, 3-phosphoinositide-dependent protein kinase 1 (Homo sapiens, UniProt O15530).
T1 sequence (O15530 whole entry): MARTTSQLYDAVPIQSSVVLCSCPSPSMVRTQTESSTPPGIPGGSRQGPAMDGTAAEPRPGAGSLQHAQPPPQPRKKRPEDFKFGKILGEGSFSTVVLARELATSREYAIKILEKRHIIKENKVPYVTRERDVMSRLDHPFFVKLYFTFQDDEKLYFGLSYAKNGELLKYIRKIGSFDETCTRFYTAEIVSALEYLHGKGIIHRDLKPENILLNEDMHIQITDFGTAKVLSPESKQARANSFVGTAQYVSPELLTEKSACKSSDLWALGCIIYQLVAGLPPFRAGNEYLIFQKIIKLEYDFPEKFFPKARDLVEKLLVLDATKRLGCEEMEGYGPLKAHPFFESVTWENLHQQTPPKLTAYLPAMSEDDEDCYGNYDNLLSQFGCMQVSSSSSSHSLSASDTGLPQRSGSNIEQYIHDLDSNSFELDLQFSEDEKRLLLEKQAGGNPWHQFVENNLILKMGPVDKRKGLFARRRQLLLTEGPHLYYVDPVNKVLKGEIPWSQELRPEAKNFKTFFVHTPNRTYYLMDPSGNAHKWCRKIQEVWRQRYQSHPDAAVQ
Kind of assay: ELISA assay. Conditions: pH 7.4; 23 °C. Here is the method:
A homogeneous in vitro assay based on a LANCE format was first used for high-throughput screening. […] ELISA IC50s were determined by Microsoft Excel data analysis wizard model 63 with the luminescent signal from wells without compound treatment as 100%.
(ELISA stands for enzyme-linked immunosorbent assay.)

As usually defined, the IC50 is the concentration needed to halve the response being measured. Read a high IC50 as weaker potency. In turn, `COc1cc2c(cc1NCCN1CCOCC1)ncc1c(N)nc3c(C)c(N)ccc3c12` [16-methoxy-6-methyl-15-N-[2-(morpholin-4-yl)ethyl]-8,12-diazatetracyclo[8.8.0.0^{2,7}.0^{13,18}]octadeca-1(10),2(7),3,5,8,11,13,15,17-nonaene-5,9,15-triamine] had an IC50 of 300 nM.
